Experimental findings from PubChem BioAssay AID2384 (Southern Research Specialized Biocontainment Screening …, 2010) are described below.

The experiment deals with S. typhi GFP reporter counter-screen, fluorescence, 4 h. Put plainly: S. typhi counter-screen signal inhibition – fluorescence, 4 h, counter-screen for PhoP regulon inhibitor project, dose response (AID 2384). A general note: The purpose of a counterscreen is to sort out artefacts and off-target activity.
As a reminder, the IC50 is the concentration that gives 50% inhibition. As to `CCN1/C(=C/c2cc[n+](C)cc2)C=Cc2cc(C)ccc21`, the IC50 is 39.4 µM.

As to `CC[n+]1c(/C=C/C=C/c2ccc(N(C)C)cc2)sc2ccccc21`, the IC50 is 128 µM.

Regarding `O=C(CSc1nc2ccccc2s1)N/N=C/c1cc([N+](=O)[O-])ccc1O`, the IC50 was 60.8 µM.

As for `C[C@H]1c2cccc(O)c2C(O)=C2C(=O)[C@]3(O)C(O)=C(C(N)=O)C(=O)[C@@H](N(C)C)C3[C@@H](O)C21` (stereo partly drawn), the IC50 is 0.68 µM.

As for `CCNC(=O)Oc1ccc[nH]c1=O`, the IC50 is 53.8 µM.

As to `O=C(Nc1nccs1)c1ccc(Cl)cc1[N+](=O)[O-]`, the IC50 was 97.6 µM.

`CCCCCCCCCCOC(=O)C[N+](C)(C)CC1CCCCC1O` (stereo not drawn): the IC50 is 37.6 µM.

Take `Cc1cc(NC2CCCCC2)nc(NCc2ccccc2)n1`: the IC50 is 36.1 µM.

`O=C(CSc1ccccn1)Nc1nonc1[N+](=O)[O-]`: the IC50 was 116 µM.

For the compound `Cn1c(-c2ccc3c(c2)OCO3)cnc1NCc1ccc(Cl)cc1`, the IC50 was 76.3 µM.

Consider `OC(CNCCc1ccccc1)COc1ccc(OCC(O)CNCCc2ccccc2)cc1` (stereo not drawn), for which the IC50 is 21.3 µM.

`Cc1cc(C)c(OCCCCNCc2ccccc2)c(Cl)c1`: the IC50 is 61.3 µM.

In the case of `Cc1cc(NS(=O)(=O)c2ccc(NC(=O)Nc3cccc(Cl)c3)cc2)no1`, the IC50 was 120 µM.

For the compound `CCN(CCNCC(O)COc1ccccc1C(C)C)c1cccc(C)c1` (stereo not drawn), the IC50 is 37.7 µM.

As to `CN(C)CC/C=C1\c2ccccc2Sc2cc(F)c(Cl)cc21`, the IC50 was 34.8 µM.

As for `CN(C)CCCN1c2ccccc2Sc2ccc(C(F)(F)F)cc21`, the IC50 is 103 µM.

As for `Cc1ccc(C)c(N/C(N)=N/c2nc(C)cc(C)n2)c1`, the IC50 is 67.4 µM.

In the case of `NC1CCN(c2c(F)cc3c(=O)c(C(=O)O)cn(C4CC4)c3c2Cl)C1` (stereo not drawn), the IC50 is under 0.55 µM.

As to `Cc1cc([N+](=O)[O-])cc(/C=N/n2c(C)nc3ccccc3c2=O)c1O`, the IC50 was 78.1 µM.

For `CCN(CCC(=O)Nc1ccc(Br)c(C)c1)Cc1ccccc1`, the IC50 is 37.9 µM.

For the compound `Nc1nc(N)c(Cc2ccc(Cl)cc2Cl)c(N)n1`, the IC50 is 61.8 µM.

Take `Nc1[nH]ncc1-c1ccccc1`: the IC50 was 48 µM.

Take `O=C(C[n+]1ccc(-c2ccccc2)cc1)Nc1ccc([N+](=O)[O-])cc1`: the IC50 was 26.3 µM.

As to `S=C(NCc1ccc(Cl)cc1)Nc1ccncc1`, the IC50 was 35 µM.

Take `O=[N+]([O-])c1ccc(N2CCNCC2)cc1NCc1cccnc1`: the IC50 is 73.8 µM.

Take `C=CC1=C(C(=O)O)N2C(=O)[C@@H](NC(=O)/C(=N/OCC(=O)O)c3csc(N)n3)[C@H]2SC1`: the IC50 was 16.5 µM.

With `O=C(N/N=C\c1ccc(Cl)s1)c1cccs1`, the IC50 is 90.8 µM.

Take `CN1CCN(C(=O)CSc2ccc(Cl)cc2)CC1`: the IC50 is 113 µM.

As for `Clc1ccc(Nc2ccc(NCc3ccccc3)nn2)cc1`, the IC50 is 90.7 µM.

Consider `Oc1ccccc1Nc1nc(NCc2ccco2)c2ccccc2n1`, for which the IC50 is 50.9 µM.

For `Cc1ccc(C(=O)NNC(=S)NC(=O)c2ccccc2)cc1`, the IC50 was 57.8 µM.

As for `c1ccc(CN2CCN(c3nc(NCc4ccco4)c4ccccc4n3)CC2)cc1`, the IC50 was 64.6 µM.

With `CN1CCC(=C2c3ccccc3C=Cc3ccccc32)CC1`, the IC50 was 77.5 µM.

Consider `COc1cc(CNCCc2ccccc2)cc(Cl)c1OCc1ccccc1`, for which the IC50 is 37.6 µM.

Turning to `O=Nc1c(O)c2ccccc2c2ccccc12`, the IC50 is 37.7 µM.

For the compound `COc1ccc(CNCCC(c2ccccc2)c2ccc3c(c2)OCO3)cc1` (stereo not drawn), the IC50 was 73.4 µM.

On to `N=c1n(CCN2CCCCC2)c2ccccc2n1CC(O)c1ccc(Cl)c(Cl)c1` (stereo not drawn), for which the IC50 is 19.8 µM.

Consider `O=C(N/N=C/c1ccc([N+](=O)[O-])o1)C1CCCC1`, for which the 50% inhibitory concentration (IC50) is 37 µM.

As for `Cc1cccc(NC2=NC3(CCCCC3)N=C(N)N2)c1`, the IC50 was 76.6 µM.

On to `Clc1ccc(/C=C/c2ncc[nH]2)c(Cl)c1`, for which the IC50 is 32.5 µM.

Consider `CN(C)CCCN(C(=O)COc1ccccc1)c1nc2ccc(Cl)cc2s1`, for which the IC50 was 40.5 µM.

Regarding `Cc1ccc(Nc2c3c(nc4ccccc24)CCC3)cc1`, the IC50 was 25.8 µM.

Turning to `CCOc1cc(CNCCCN2CCOCC2)cc(Br)c1OCC(=O)Nc1cccc(C(F)(F)F)c1`, the IC50 is 47.1 µM.

Turning to `Nc1ncn(C2O[C@H](CO)[C@@H](O)[C@H]2O)c(=O)n1` (stereo partly drawn), the IC50 was 35.2 µM.

For the compound `CCCCCCCCCCCCCCCC[n+]1ccc(C(N)=O)cc1`, the IC50 is 9.85 µM.

For `Clc1ccc(CNCc2cccs2)cc1Cl`, the IC50 is 45.4 µM.

As to `CC(C)(C)/C(O)=C/c1nc2cc(Cl)ccc2oc1=O`, the IC50 was 24.2 µM.

For the compound `CN(C)CC/C=C1\c2ccc(F)cc2Sc2cc(F)c(Cl)cc21`, the IC50 is 19.5 µM.

Consider `COc1ccc2nc(N(CCN(C)C)C(=O)/C=C/c3cccs3)sc2c1`, for which the IC50 was 65.8 µM.

With `CC(Oc1ccc(Br)cc1)c1nc2c3ccccc3nc(=S)n2[nH]1` (stereo not drawn), the IC50 is 139 µM.

In the case of `NS(=O)(=O)OCCCc1ccc(C(F)(F)F)cc1`, the IC50 was 145 µM.

Regarding `CCCCN(CCCC)C(=O)c1cn(CC)c2cc(N3CCN(C)CC3)c(F)cc2c1=O`, the IC50 was 15.7 µM.

As to `CSc1cccc(NC(=O)/C=C/c2ccccc2)c1`, the IC50 is 72 µM.

For the compound `CCCCCc1ccc(OCCC[n+]2ccccc2)c(CCCCC)c1`, the IC50 was 32.9 µM.

As to `Nc1ncncc1-c1ccc(Cl)cc1`, the IC50 was 65.5 µM.

Consider `OC(c1cc(C(F)(F)F)nc2c(C(F)(F)F)cccc12)C1CCCCN1` (stereo not drawn), for which the IC50 is 19.1 µM.

Regarding `Fc1ccc(Nc2c3c(nc4ccccc24)CCC3)cc1`, the IC50 is 47 µM.

As for `N=c1n(CCN2CCCCC2)c2ccccc2n1CC(O)COc1ccccc1` (stereo not drawn), the IC50 is 29.7 µM.

Turning to `C#CCOCCOCCOCCNc1nc(N2CCN(C(=O)CCCCCCCCCCNC(=O)[C@H]([C@@H](C)CC)n3cc(CCCCN=C(N)N)nn3)CC2)nc(N2CCN(C(=O)CCCCCCCCCCNC(=O)[C@H](CCCCN)n3cc(C)nn3)CC2)n1`, the IC50 is 47.3 µM.

For `CN1CCc2nc(SCC(=O)Nc3ccc(Cl)cc3)c(C#N)cc2C1`, the half-inhibitory concentration (IC50) is 93.5 µM.

On to `NC(=O)SCC(=O)Nc1ccc(Cl)cc1`, for which the IC50 is 46.2 µM.

Turning to `O=C(CCN1Cc2ccccc2C1)c1ccc2c(c1)OCCO2`, the IC50 is 137 µM.

On to `CCCCn1c(NS(=O)(=O)c2ccccc2)c(S(=O)(=O)c2ccc(C)cc2)c2nc3ccccc3nc21`, for which the IC50 was 9.39 µM.

Consider `CN1CCN(C2=Cc3ccccc3Sc3cc(F)c(Cl)cc32)CC1`, for which the IC50 is 27 µM.

Regarding `CC1CCN(CCOCCOc2ccc(Br)cc2Cl)CC1`, the IC50 is 97.8 µM.

Consider `CCCCCCCCCn1c2c(c(=N)c3c1CCC3)CCC2`, for which the IC50 is 10.6 µM.

As for `Cc1cc(C)c2sc(N(CCCN(C)C)C(=O)COc3ccc(Cl)cc3)nc2c1`, the IC50 is 34.8 µM.

Turning to `Cc1ccc(C(C[N+](=O)[O-])n2nc(C)cc2C)cc1` (stereo not drawn), the IC50 is 27.1 µM.

Consider `O=C(Cn1cnc2ccccc21)Nc1ccc(SC(F)F)cc1`, for which the IC50 is 143 µM.

Regarding `COc1ccc(CNCCc2ccc(Cl)cc2)cc1OCc1ccccc1`, the IC50 is 69.3 µM.

Regarding `O=C(NC(CO)Cc1ccc([N+](=O)[O-])cc1)C(Cl)Cl` (stereo not drawn), the IC50 is 3.82 µM.

With `COc1ccc(OCC(O)CNc2ccc(Br)cc2)cc1` (stereo not drawn), the IC50 is 3.74 µM.

As to `CN(Cc1ccccc1)CC(O)COc1ccc(CNCCCOc2cccnc2)cc1` (stereo not drawn), the IC50 was 53.3 µM.

Turning to `CCCCCN=C(N)N/N=C/c1c[nH]c2ccc(OC)cc12`, the IC50 is 26.9 µM.

As for `CN1CC=C(/C=C/c2ccc(-c3ccccc3)cc2)CC1`, the IC50 is 23.7 µM.

Consider `O=C(O)c1ccc(N2C(=O)CC(N3C(=O)/C(=C/c4ccc(Cl)cc4)SC3=S)C2=O)cc1` (stereo not drawn), for which the IC50 is 23.7 µM.

As to `COC(=O)C(C)NC(=S)N1CCN(c2c(F)cc3c(=O)c(C(=O)O)cn(C4CC4)c3c2OC)CC1C` (stereo not drawn), the IC50 was 39.6 µM.

As for `O=c1[nH][nH]c(-c2ccccc2O)c1C(C[N+](=O)[O-])c1ccc(Br)cc1` (stereo not drawn), the IC50 is 63 µM.

For the compound `CN1CCN(C(c2ccc(C(F)(F)F)cc2)c2ccc3cccnc3c2O)CC1` (stereo not drawn), the IC50 is 21.8 µM.

Regarding `Cc1cc(N=Nc2ccc(C)c(N=Nc3cc(C)c(N)cc3N)c2)c(N)cc1N`, the IC50 is 57.6 µM.

Turning to `Cc1ccc(-c2csc(NC(=O)C[n+]3cc(-c4ccccc4)n4c3CCC4)n2)cc1`, the IC50 is 19.3 µM.

Regarding `Cc1ccc(-c2c[n+](CC(=O)Nc3nc(-c4ccccc4)cs3)c3n2CCC3)cc1`, the IC50 is 21.2 µM.

Regarding `Cc1ccc(C(OCC(O)CNCc2ccc(F)cc2)c2ccccc2)cc1` (stereo not drawn), the IC50 was 37 µM.

On to `Cc1cc(C)c2c(N)c3ccccc3nc2n1`, for which the IC50 was 84.7 µM.

On to `CC[C@H](C)[C@@H](CN[C@H](C)CNC)NCCC(c1ccccc1)c1ccccc1`, for which the IC50 is 50.2 µM.

Turning to `Cc1cc(C(C)(C)CC(C)(C)C)ccc1OCCOCC[N+](C)(C)Cc1ccccc1`, the IC50 is 16.8 µM.

As to `CN1CCN(/N=C/c2c3ccccc3c(Cl)c3ccccc23)CC1`, the half-maximal inhibitory concentration (IC50) was 73.5 µM.

For `Cc1ccc(NC(=O)c2ccccc2)s1`, the IC50 was 110 µM.

With `CCCCCc1ccc(OCCCC[n+]2cccc(C)c2)c(CCCCC)c1`, the IC50 is 64.9 µM.

In the case of `S=C(Nc1ccc(Cl)c(Cl)c1)NC1CCN(Cc2ccccc2)CC1`, the IC50 was 37.8 µM.

`O=C(O)c1csc(-c2ccc(Cl)cc2)n1`: the IC50 was 120 µM.

Regarding `CCCCCCCNC(=O)C1(CC2CC(c3cccc(Br)c3)=NO2)CCNCC1` (stereo not drawn), the IC50 is 39.8 µM.

For the compound `O=C(N/N=C/c1c[nH]c2ccccc12)c1ccc(Cl)cc1`, the IC50 was 91.6 µM.

In the case of `Cn1c(CN2CCCC2)nc2cc(NC(=O)COc3ccc(Cl)cc3)ccc21`, the IC50 is 128 µM.

As for `Nc1nnc(-c2cccc(Cl)c2Cl)c(N)n1`, the IC50 was 25.8 µM.

With `Cc1ccc(CC(=O)Nc2ncc([N+](=O)[O-])s2)cc1`, the IC50 was 78.5 µM.

For `CC(NCc1ccc(-c2ccccc2)cc1)C(O)c1ccccc1` (stereo not drawn), the IC50 is 39 µM.

With `O=C(Nc1ccccc1)c1c(O)[nH]c(=S)[nH]c1=O`, the IC50 was 84.8 µM.

As for `O=C(NCCCN1CCN(c2ccc(F)cc2)CC1)Nc1ccc([N+](=O)[O-])cc1`, the concentration for half-maximal inhibition (IC50) was 74.7 µM.

As to `O=C(CNCCC1=CCCCC1)Nc1ccc(N2CCCCCC2)cc1`, the IC50 was 24.7 µM.

With `O=C(CSc1nnc(-c2ccccc2)n1-c1ccc(Cl)cc1)NC1CCS(=O)(=O)C1` (stereo not drawn), the IC50 is 44.3 µM.

For `O=S1(=O)Nc2c(ccc3cccnc23)-c2ccccc21`, the IC50 was 3.32 µM.

With `CN1CCN(C2=Cc3ccccc3Sc3cc(F)c(F)cc32)CC1`, the IC50 was 37.3 µM.
